Paper PMC8151276, “An Integrated Approach toward NanoBRET Tracers for Analysis of GPCR Ligand Engagement” (Molecules, 2021)

How the values were obtained:
ACKR3 = biological target: T1, ACKR3 (Homo sapiens, UniProt P25106); assay: NanoBRET screen HiBiT-ACKR3 in HEK293; format: binding
T1 construct: purchased Promega (in-house HiBiT-GPCR construct library, NanoBRET)
Protocol: (§1) Each tracer candidate was screened across the entire library of HiBiT-GPCR constructs using NanoBRET as the detection modality. As depicted in Figure 4A, the specificity of interactions was evaluated through decrease in BRET due to competitive displacement of a bound tracer by excess parental compound. Each tracer was analyzed for binding to each HiBiT-GPCR fusion in the absence and in the presence of competing parental compound. Briefly, HEK293 cells were transfected with HiBiT-GPCR constructs diluted into promoterless DNA to reduce expression and maximize translocation to the cell surface. Each tracer candidate was then screened at concentrations of 1 μM and 0.1 μM across cells expressing these fusions. Cells were treated for 1.5 h with tracer either alone or in the presence of 20 μM competing parental compound (i.e., control). BRET was measured upon addition of purified LgBiT and subsequent complementation with HiBiT genetically fused to a GPCR. The specificity of interactions was assessed through a decrease in BRET signal due to competitive displacement of the bound tracer. To further gauge the robustness of these interactions, the fold response over the control (i.e., BRETtracer/BRETcontrol) was calculated. We chose a 1.5-fold response, which translates to ≥7-fold signal over noise as the minimal threshold required to score an interaction as positive. […]. Below we highlight the screening results obtained for our exemplary fluorescent tracers based on Clozapine, Amitriptyline and AZD1283.
(§2) HiBiT-GPCR DNA constructs were diluted in 10 mM Tris pH 8 to a final concentration of 0.01 μg/μL, arrayed in 96-well plates and stored at −20 °C. For transfection, HEK293 cells were suspended in Opti-MEM (without phenol red) supplemented with 2% fetal bovine serum (Seradigm) and 100 units/mL penicillin–streptomycin (Gibco) at a final concentration of 220,000 cells/mL and dispensed into white 96-well plates at 90 μL/well. Subsequent transfections and screens were carried using an Agilent Bravo Automated Liquid Handling Platform. First, the 96-well HiBiT DNA arrays were diluted 25-fold in Opti-MEM (without serum or phenol red) to a final concentration of 0.0004 μg/μL and 20 μL of the diluted DNAs were transferred into new 96-well plates. Next, promoterless carrier DNA (1 μg/μL) was diluted 25-fold (0.04 μg/μL) and then dispensed into the diluted arrays at 20 μL/well. Following brief mixing, Viafect transfection reagent (Promega) diluted 16-fold into Opti-MEM was dispensed into the plates at 40 μL/well. After mixing by pipetting, plates were incubated for 10 min on the pipetting station deck. The DNA-transfection reagent complexes were then added to plates containing cells. To facilitate the screen, 10 μL of DNA-transfection reagent complexes were added in duplicates to the top 4 and bottom 4 rows, resulting in two identical 48-well arrays per plate. Plates with transfected cells were incubated for 18–20 h at 37 °C/5% CO2. A screen of each tracer across the entire library using two different concentrations requires duplicate plates of transfected cells. Depending on the number of tracers being screened, transfections can be scaled up using the same ratios. The next day, for each tracer, four 20× screening solutions in tracer dilution buffer (Promega) were prepared: two duplicates at final concentration of 20 μM and two duplicates at a final concentration of 2 μM. A competing unmodified compound was added to one of each duplicate at a final concentration of 400 μM. The four resulting solutions were diluted 4-fold in Opti-MEM without serum or phenol red to generate 5× solutions (5 µM and 0.5 µM tracer +/− 100 μM competing compound). To screen the library, a BioTek MultiFlo FX liquid dispenser was used to dispense 22.5 µL of tracer solution to the top 4 rows and 22.5 µL tracer + competing compound solution to the 4 bottom rows. Plates were briefly mixed on an orbital shaker and incubated for 1.5 h at room temperature. […]

NPY1R = biological target: T2, NPY1R (Homo sapiens, UniProt P25929); assay: NanoBRET screen HiBiT-NPY1R in HEK293; format: binding
T2 construct: purchased Promega (in-house HiBiT-GPCR construct library, NanoBRET)
T2 sequence (P25929 1-384): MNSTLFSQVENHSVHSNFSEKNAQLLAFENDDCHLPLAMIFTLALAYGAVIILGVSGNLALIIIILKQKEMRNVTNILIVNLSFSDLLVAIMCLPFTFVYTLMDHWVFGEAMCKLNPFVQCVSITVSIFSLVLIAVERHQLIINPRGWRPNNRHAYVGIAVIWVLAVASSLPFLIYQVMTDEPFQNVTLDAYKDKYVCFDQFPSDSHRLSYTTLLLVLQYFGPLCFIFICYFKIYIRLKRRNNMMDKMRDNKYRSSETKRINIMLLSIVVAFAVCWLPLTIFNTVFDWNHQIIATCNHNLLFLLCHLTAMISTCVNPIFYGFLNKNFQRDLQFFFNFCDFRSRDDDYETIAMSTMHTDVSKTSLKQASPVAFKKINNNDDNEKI
Protocol: as §1, §2

[1] = tracer at 0.1μM, listed as amitriptyline-b-2-NB590
[2] = tracer at 1μM, listed as amitriptyline-b-2-NB590

T1 sequence (P25106 whole entry): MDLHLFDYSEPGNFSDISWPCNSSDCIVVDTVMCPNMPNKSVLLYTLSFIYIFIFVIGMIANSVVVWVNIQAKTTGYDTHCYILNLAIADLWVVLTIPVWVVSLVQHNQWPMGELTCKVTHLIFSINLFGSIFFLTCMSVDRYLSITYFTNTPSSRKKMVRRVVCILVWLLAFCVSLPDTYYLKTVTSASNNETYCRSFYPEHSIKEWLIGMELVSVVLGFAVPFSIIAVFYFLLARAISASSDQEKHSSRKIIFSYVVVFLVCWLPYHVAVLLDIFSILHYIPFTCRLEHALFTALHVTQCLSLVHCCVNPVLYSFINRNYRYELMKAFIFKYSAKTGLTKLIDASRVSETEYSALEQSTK

SMILES | NanoBRET Fold Response (ACKR3; ACKR3, tracer 0.1μM) | NanoBRET Fold Response (ACKR3; ACKR3, tracer 1μM) | NanoBRET Fold Response (NPY1R; NPY1R, tracer 0.1μM) | NanoBRET Fold Response (NPY1R; NPY1R, tracer 1μM) | other results
CCOC(=O)c1cc(C#N)c(N2CCC(C(=O)NS(=O)(=O)Cc3ccccc3/C=C/C(=O)NCCNC(=O)CCc3ccc4n3[B-](F)(F)[N+]3=C(c5ccc[nH]5)C=CC3=C4)CC2)nc1C [AZD1283-1-NB590] | – | – | – | – | NanoBRET Fold Response (ACKR3; ACKR3, 0.1μM): 1.06; NanoBRET Fold Response (ACKR3; ACKR3, 1μM): 1.19; NanoBRET Fold Response (NPY1R; NPY1R, 0.1μM): 1.10; NanoBRET Fold Response (NPY1R; NPY1R, 1μM): 1.04
N#CN=C(NCCCOc1cccc(CN2CCCCC2)c1)NCCNC(=O)CCOCCOCCOCCOCCNC(=O)CCc1ccc2n1[B-](F)(F)[N+]1=C(c3ccc[nH]3)C=CC1=C2 [Aminopotentidine-2-NB590] | 0.99 | 1.08 | 0.99 | 1.01 | –
CN(C)CCC=C1c2ccccc2CCc2ccc(C(=O)NCCNC(=O)CCOCCOCCOCCOCCNC(=O)CCc3ccc4n3[B-](F)(F)[N+]3=C(c5ccc[nH]5)C=CC3=C4)cc21 [Amitriptyline-a-2-NB590] | – | – | – | – | NanoBRET Fold Response (ACKR3; tracer at 0.1μM): 1.15; NanoBRET Fold Response (ACKR3; tracer at 1μM): 0.99; NanoBRET Fold Response (NPY1R; tracer at 0.1μM): 1.00; NanoBRET Fold Response (NPY1R; tracer at 1μM): 1.03
CN(C)CCC=C1c2ccccc2CCc2ccc(C(=O)NCCNC(=O)CCOCCOCCOCCOCCNC(=O)CCc3ccc4n3[B-](F)(F)[N+]3=C(c5ccc[nH]5)C=CC3=C4)cc21 [Amitriptyline-b-2-NB590] | – | – | – | – | NanoBRET Fold Response (ACKR3; [1]): 1.17; NanoBRET Fold Response (ACKR3; [2]): 1.07; NanoBRET Fold Response (NPY1R; [1]): 0.90; NanoBRET Fold Response (NPY1R; [2]): 1.11
CN(CCC=C1c2ccccc2CCc2ccccc21)C(=O)CCOCCOCCOCCOCCNC(=O)CCc1ccc2n1[B-](F)(F)[N+]1=C(c3ccc[nH]3)C=CC1=C2 [Amitriptyline-e-2-NB590] | – | – | – | – | NanoBRET Fold Response (ACKR3; tracer at 1μM): 0.94
COc1ccc2c(n1)c(CCNC(C)=O)cn2CCNC(=O)CCc1ccc2n1[B-](F)(F)[N+]1=C(c3ccc[nH]3)C=CC1=C2 [Azamelatonin-1-NB590] | – | – | – | – | NanoBRET Fold Response (ACKR3; 0.1μM tracer): 0.84; NanoBRET Fold Response (ACKR3; 1μM tracer): 0.95; NanoBRET Fold Response (NPY1R; 0.1μM tracer): 0.93; NanoBRET Fold Response (NPY1R; 1μM tracer): 0.68
COc1ccc2[nH]c(-c3ccc(CNC(=O)CCOCCOCCOCCOCCNC(=O)CCc4ccc5n4[B-](F)(F)[N+]4=C(c6ccc[nH]6)C=CC4=C5)cc3)c(CCNC(C)=O)c2n1 [AzomelatoninICO9-2-NB590] | – | – | – | – | NanoBRET Fold Response (ACKR3; 0.1μM tracer): 1.40; NanoBRET Fold Response (ACKR3; 1μM tracer): 0.83; NanoBRET Fold Response (NPY1R; 0.1μM tracer): 1.15; NanoBRET Fold Response (NPY1R; 1μM tracer): 0.94
O=C(CCOCCOCCOCCOCCNC(=O)CCc1ccc2n1[B-](F)(F)[N+]1=C(c3ccc[nH]3)C=CC1=C2)NCCCN1CCN(C2=Nc3cc(Cl)ccc3Nc3ccccc32)CC1 [Clozapine-a-2-NB590] | – | – | – | – | NanoBRET Fold Response (ACKR3; ACKR3, 0.1μM tracer): 1.05; NanoBRET Fold Response (ACKR3; ACKR3, 1μM tracer): 1.06; NanoBRET Fold Response (NPY1R; NPY1R, 0.1μM tracer): 0.97; NanoBRET Fold Response (NPY1R; NPY1R, 1μM tracer): 1.23
CN1CCN(C2=Nc3cc(Cl)ccc3Nc3ccc(CNC(=O)CCOCCOCCOCCOCCNC(=O)CCc4ccc5n4[B-](F)(F)[N+]4=C(c6ccc[nH]6)C=CC4=C5)cc32)CC1 [Clozapine-b-2-NB590] | – | – | – | – | NanoBRET Fold Response (ACKR3; ACKR3, 0.1μM tracer): 0.95; NanoBRET Fold Response (ACKR3; ACKR3, 1μM tracer): 1.05; NanoBRET Fold Response (NPY1R; NPY1R, 0.1μM tracer): 1.00; NanoBRET Fold Response (NPY1R; NPY1R, 1μM tracer): 1.03
CN1CCN(C2=Nc3cc(Cl)ccc3N(CC(=O)NCCOCCOCCOCCOCCNC(=O)CCc3ccc4n3[B-](F)(F)[N+]3=C(c5ccc[nH]5)C=CC3=C4)c3ccccc32)CC1 [Clozapine-c-2-NB590] | – | – | – | – | NanoBRET Fold Response (ACKR3; ACKR3, 1μM tracer): 0.92; NanoBRET Fold Response (NPY1R; NPY1R, 0.1μM tracer): 1.01; NanoBRET Fold Response (NPY1R; NPY1R, 1μM tracer): 1.01
O=C(CCOCCOCCOCCOCCNC(=O)CCc1ccc2n1[B-](F)(F)[N+]1=C(c3ccc[nH]3)C=CC1=C2)NCCCN1CCN(C2=Nc3ccccc3Oc3ccc(Cl)cc32)CC1 [Loxapine-a-2-NB590] | 0.30 | 1.02 | 0.94 | 1.09 | –
COc1ccccc1N1CCN(CCCCN2C(=O)c3ccc(CNC(=O)CCOCCOCCOCCOCCNC(=O)CCc4ccc5n4[B-](F)(F)[N+]4=C(c6ccc[nH]6)C=CC4=C5)cc3C2=O)CC1 [NAN-190-2-NB590] | 1.09 | – | 1.02 | 0.94 | –
COc1ccccc1N1CCN(CCCCN2C(=O)c3ccc(CNC(=O)CCOCCNC(=O)c4ccc(CNC(=O)CCc5ccc6n5[B-](F)(F)[N+]5=C(c7ccc[nH]7)C=CC5=C6)cc4)cc3C2=O)CC1 [NAN-190-3-NB590] | 0.77 | 1.10 | 0.88 | 0.94 | –
O=C(CCc1ccc2n1[B-](F)(F)[N+]1=C(c3ccc[nH]3)C=CC1=C2)NCc1ccc(C(=O)NCCOCCC(=O)N[C@@H]2CC[C@@]3(O)[C@H]4Cc5ccc(O)c6c5[C@@]3(CCN4CC3CC3)[C@H]2O6)cc1 [Naltrexone-3-NB590] | 1.11 | 1.07 | 0.93 | 1.02 | –
Cc1cc2c(s1)Nc1ccccc1N=C2N1CCN(CCCNC(=O)CCOCCOCCOCCOCCNC(=O)CCc2ccc3n2[B-](F)(F)[N+]2=C(c4ccc[nH]4)C=CC2=C3)CC1 [Olanzapine-a-2-NB590] | 0.94 | 0.83 | 1.02 | 1.02 | –
O=C(CCc1ccc2n1[B-](F)(F)[N+]1=C(c3ccc[nH]3)C=CC1=C2)NCc1ccc(C(=O)NCCOCCOCCNCC(O)COc2cccc3ccccc23)cc1 (stereo not drawn) [Propranolol-3-NB590] | – | – | – | – | NanoBRET Fold Response (ACKR3; ACKR3, 0.1μM): 1.04; NanoBRET Fold Response (ACKR3; ACKR3, 1μM): 1.08; NanoBRET Fold Response (NPY1R; NPY1R, 0.1μM): 1.08; NanoBRET Fold Response (NPY1R; NPY1R, 1μM): 0.99
O=C(CCc1ccc2n1[B-](F)(F)[N+]1=C(c3ccc[nH]3)C=CC1=C2)NCCOCCOCCNC(=O)OCCOCCN1CCN(C2=Nc3ccccc3Sc3ccccc32)CC1 [Quetiapine-a-2-NB590] | 0.96 | 0.96 | 1.03 | 0.71 | –
Cc1nc2n(c(=O)c1CCN1CCC(c3noc4cc(F)ccc34)CC1)CCCC2OC(=O)NCCOCCOCCOCCOCCNC(=O)CCc1ccc2n1[B-](F)(F)[N+]1=C(c3ccc[nH]3)C=CC1=C2 (stereo not drawn) [Risperidone-2-NB590] | 1.07 | 1.36 | 0.88 | 0.99 | –
CC(C)N(CC[C@H](c1ccccc1)c1cc(CCNC(=O)CCOCCOCCOCCOCCNC(=O)CCc2ccc3n2[B-](F)(F)[N+]2=C(c4ccc[nH]4)C=CC2=C3)ccc1O)C(C)C [Tolterodine-2-NB590] | 0.96 | 1.00 | 1.16 | 1.00 | –
CC(C)N(CC[C@H](c1ccccc1)c1cc(CCNC(=O)c2ccc(CNC(=O)CCc3ccc4n3[B-](F)(F)[N+]3=C(c5ccc[nH]5)C=CC3=C4)cc2)ccc1O)C(C)C [Tolterodine-BZ-NB590] | 0.88 | 0.96 | 1.15 | 0.95 | –
